Assay [1] relates to alpha-1 type 1 collagen (COL1A1) protein in LX2 cells. Kind of assay: Simple Western of COL1A1 protein in TGF-β1-stimulated LX2 hepatic stellate cells. The format is cell-based, human. The settings on record: for upregulation of COL1A1 in TGF-β1-treated LX2 cells: 10 μM, 30 min pretreatment, then 5 ng/ml TGF-β1 for 24 h; for protein abundance of COL1A1: sole treatment 10 μM for 24 h, LX2 cells, no TGF-β1. Here is the method:
(§1) The human hepatic stellate cell line LX2 was purchased from Merck. The cells were used up to passage ten and incubated under sterile conditions at 37° C. and 5% CO2. The cells were cultivated in medium containing Dulbecco's Modified Eagle's Medium with 4.5 g/l glucose (ThermoFisher), 4 mmol/l glutamine (ThermoFisher), 2% fetal bovine serum (FBS) (Merck), 100 U/ml penicillin and 100 μg/ml streptomycin (Merck). After 2 days, LX2 cells were starved for FBS for 24 h and then pretreated with 10 μM HK1 (Taros Chemicals GmbH & Co. KG) or 10 μM HK3 (Taros Chemicals GmbH & Co. KG) for 30 min. Subsequently, 5 ng/ml recombinant TGF-β1 (R&D Systems, Minneapolis, MN, USA) was added to the hepatic stellate cell cultures for 24 h. LX2 cells were also incubated with 5 ng/ml TGF-β1 alone as positive control for the hepatic stellate cell activation. Recombinant TGF-β1 was dissolved in sterile 4 mmol/l HCl (Merck) containing 0.1% bovine serum albumin (Roth Karlsruhe, Germany) as carrier protein. HK1 and HK3 were dissolved in sterile dimethyl sulfoxide (DMSO) (Sigma-Aldrich, Munich, Germany). Stimulations with 10 μM HK1, 10 μM HK3 and the corresponding vehicles (HCl and DMSO with or without HCl) alone for 24 h were also included as treatments.
(§2) For the measurement of the pro-fibrotic proteins, Western Blotting was performed. Proteins were extracted from whole cell lysate of LX2 cells using RIPA lysis buffer containing 50 mmol/l Tris-HCl (pH 8.0), 150 mmol/l NaCl, 1% IGEPAL® CA-630, 0.5% sodium deoxycholate, 0.1% sodium dodecyl sulfate, 10% PhosSTOP Phosphatase Inhibitor Cocktail (Roche, Basel, Switzerland) and 10% cOmplete Mini Protease Inhibitor Cocktail (Roche). Lysates were centrifuged at 14850×g for 15 min at 4° C. Then, the total protein content of the lysates was determined using a bicinchoninic acid protein assay (ThermoFisher Scientific) in accordance with the manufacturer's instructions. The quantification of protein abundance was performed by Simple Western size-based assays using a 12-230 kDa and 66-440 kDa Separation Module (ProteinSimple, San Jose, CA, USA) according to the manufacturer's instructions. This fully automated Western blotting system is based on a capillary electrophoresis technology. The separation, immobilization to the capillary wall via a proprietary, photoactivated capture chemistry and immunodetection of the proteins using a horseradish peroxidase (HRP)-conjugated secondary antibody and chemiluminescent substrate take place directly in the capillary without gel separation and transfer steps to blotting paper. The chemiluminescence is measured at multiple exposure times and automatically quantified by the Compass for Simple Western software (version 4.1.0) (ProteinSimple). The chemiluminescent signal for immunodetected proteins, which can be represented as an electropherogram or virtual blot-like image, is automatically quantified by calculation of the area under the curve of the peak.
(§3) The software reports the molecular weight, the area (in an arbitrary unit and in percent) and signal to noise ratio for each protein detected. The primary antibodies for the recognition of endogenous levels of total alpha-1 type 1 collagen (COL1A1) protein (#72026) and total fibronectin 1 (FN1) protein (#26836) were purchased from Cell Signaling Technology (Danvers, MA, USA). The anti-rabbit HRP-linked secondary antibody was from ProteinSimple. […]
(§4) Differences were analysed by one-way ANOVA followed by the Tukey method as correction for multiple testing.

Assay [2] relates to caspase 3/7 activity in primary human hepatocytes. Put plainly: Caspase 3/7 activity provoked by palmitate in primary human hepatocytes. The settings on record: Hepatocyte, 10 μM pre-treatment + palmitate 200 μM, read-out: caspase 3/7 activity, % of control. The class given is cell-based. The procedure:
The potential protective effect of HK1 and HK3 on caspase 3/7 activity in HepG2 cells and primary human hepatocytes was analysed.
HepG2 cells were obtained from Merck (Darmstadt, Germany) (ECACC-certified), while primary human hepatocytes were obtained from Thermo Fisher Scientific (Waltham, MA, USA), and all were cultured according to the instructions of the respective manufacturers. During experiments, cells were cultured in serum-free medium. Unless otherwise stated, cells were treated with 200 μM bovine serum albumin (BSA)-conjugated palmitate (Cayman Chemicals, Ann Arbor, MI) alone or in combination with 10 μM HK1 (Taros Chemicals GmbH & Co. KG, Dortmund, Germany) and HK3 (Taros Chemicals GmbH & Co. KG, Dortmund, Germany) 30 min prior to palmitate exposure for 24 hours. The vehicle BSA was used according to the palmitate concentration and DMSO according to HK1 and HK3 concentration. 2 μM Staurosporine (Abcam, Cambridge, GB) was used as a positive and 100 μM Caspase 3/7 inhibitor (CI) (Cayman Chemicals) as a negative control.
Differences were analysed by one-way ANOVA.

Assay [3] has as its system fibronectin 1 (FN1) protein in LX2 cells. Put plainly: Simple Western of FN1 protein in TGF-β1-stimulated LX2 hepatic stellate cells. The format is cell-based, human. The following applies: for upregulation of FN1 in TGF-β1-treated LX2 cells: 10 μM, 30 min pretreatment, then 5 ng/ml TGF-β1 for 24 h; for protein abundance of FN1: sole treatment 10 μM for 24 h, LX2 cells, no TGF-β1. The procedure: as §1, §2, §3, §4

The structures appear in SMILES notation.

With `Cc1cc(NC(=S)/C(C#N)=C(\O)C2CC2)ccc1F` [HK1, 2-Cyano-3-cyclopropyl-N-(4-fluoro-3-methyl-phenyl)-3-hydroxy-thioacrylamide], in assay [1], the “upregulation of COL1A1 in TGF-β1-treated LX2 cells” value is reported as “completely suppressed” and the “protein abundance of COL1A1” value is listed as “no impact”. The activity at 10 µM in assay [2] worked out at 85.6%. For the same compound, in assay [3], the “upregulation of FN1 in TGF-β1-treated LX2 cells” value is recorded as “completely suppressed” and the “protein abundance of FN1” value is reported as “no impact”.
Regarding `Cc1cc(NC(=S)/C(C#N)=C(\O)C2CC2)ccc1[N+](=O)[O-]` [HK3, 2-Cyano-3-cyclopropyl-3-hydroxy-N-(3-methyl-4-nitro-phenyl)-thioacrylamide], in assay [1], the “upregulation of COL1A1 in TGF-β1-treated LX2 cells” value is given as “completely suppressed” and the “protein abundance of COL1A1” value is “no impact”. For the same compound, the activity at 10 µM in assay [2] worked out at 41.7%. In assay [3], the “upregulation of FN1 in TGF-β1-treated LX2 cells” value is given as “completely suppressed” and the “protein abundance of FN1” value is reported as “no impact”.

For the origin of these results see patent US20260191815A1, “THIOACRYLAMIDE DERIVATIVES FOR USE IN THE PREVENTION OR TREATMENT OF LIVER FIBROSIS” (CMR CUREDIAB METABOLIC RESEARCH GMBH, priority 2022, published 2026).
